Reference: article PMC10920779, “Targeting P2Y14R protects against necroptosis of intestinal epithelial cells through PKA/CREB/RIPK1 axis in ulcerative colitis” (Nature Communications, 2024)
“And” between values parts separate entries of the source, which are not always exact repeats. Equal entries are not always repeated.

How the values were obtained:
Ripk1 mRNA [1] = assay: RT-PCR of Ripk1 mRNA in HT-29 cells; format: cell-based, human
Excerpt: (§1) Total RNA was extracted from cells or colonic tissues using Trizol (Thermo) under the manufacturer’s instructions. First strand cDNA was synthesized using the PrimeScript RT Reagent Kit (480, Abm). SYBR Green Master Mix reagents (Q331-02, Vazyme) and primer mixtures (Table S1) were used for the real-time PCR. […] The procedure was as described in the kit provided by the manufacturer. Briefly, isolated IECs were fixed by 1% formaldehyde, and fragmented by sonication. CREB was then used for immunoprecipitation. After washing and reverse-crosslinking, the precipitated DNA was amplified by primers and quantified by the qPCR. Primer sequences can be found in Supplementary Table 1.

Ripk1 mRNA [2] = assay: RT-PCR of Ripk1 mRNA in intestinal epithelial cells of experimental colitis mice; format: in vivo, mouse; details: Figure 7i, group TSZ+UDPG+Nec-1s
Experimental: Colon tissues derived from the euthanized by carbon dioxide inhalation mice were opened longitudinally and washed in pre-cooling PBS for three times. Then, the tissues were cut into 3 mm^2 pieces and incubated with 5 mM EDTA solution in PBS on a constant temperature shaker at 200 rpm for 25 min at 37°C. Then, let it stand at room temperature for 30 seconds and collected the supernatant. Next, repeated the above process once. Supernatants from the above step were combined and centrifuged at 500 g for 8 min. Abandon the supernatants and obtain IECs.
as §1

MLKL phosphorylation [3] = assay: Immunoblotting of p-MLKL/MLKL in HCT-116 cells; format: cell-based, human; details: P2Y14R-OE cells + TSZ, replicates, supplement Figure 2g
Experimental: (§2) Tissues and cells were lysed using RIPA lysis buffer (Beyotime Biotechnology) containing protease and phosphatase inhibitor, homogenated, and centrifuged. The protein concentration was determined by BCA protein assay (Beyotime Biotechnology). Equal concentrations of proteins were separated in a 10% SDS-PAGE and transferred to PVDF membrane. […] Densitometry was quantified using ImageJ software.

[4] = system: PKA and CREB phosphorylation; assay: Immunoblotting of p-PKA and p-CREB in HT-29 cells; format: cell-based, human
Experimental: as §2

MLKL phosphorylation [5] = assay: Immunoblotting of p-MLKL/MLKL in HT-29 cells; format: cell-based, human; details: P2Y14R-OE cells + TSZ, replicates, supplement Figure 2e
Experimental: as §2

intestinal organoids = assay: TSZ-induced necroptosis in intestinal organoids (PI staining); format: cell-based, mouse; details: P2Y14Rfl/fl organoids, UDPG+TSZ
Experimental: Crypts were released from the murine small intestine by incubation for 30 min at 4°C in PBS containing 2 mM EDTA. Isolated crypts were counted and pelleted. […] Organoid media were changed every 3 days. […] Dead cell imaging in live organoids was performed on the fluorescence microscope (BX53, Olympus Optical), and analyzed by image j.

[6] = system: CREB binding to Ripk1 promoter; assay: ChIP-qPCR with anti-CREB on Ripk1 gene promoter in HCT-116 cells; format: cell-based, human
Excerpt: as §1

Ripk1 mRNA [7] = assay: RT-PCR of Ripk1 mRNA in HCT-116 cells; format: cell-based, human
Excerpt: as §1

[8] = system: PKA and CREB phosphorylation; assay: Immunoblotting of p-PKA and p-CREB in HCT-116 cells; format: cell-based, human
Experimental: as §2

[9] = system: CREB binding to Ripk1 promoter; assay: ChIP-qPCR with anti-CREB on Ripk1 gene promoter in HT-29 cells; format: cell-based, human
Excerpt: as §1

HT-29 cells = assay: TSZ-induced necroptosis in HT-29 cells (CCK8 viability, PI/Hoechst, H&E staining); format: cell-based, human
Experimental: (§3) Necroptosis was induced by pretreatment with TNF‐α (20 ng·mL^−1) plus z‐VAD‐fmk (20 μM) and Smac mimetic (BV6, 2 μM) for 8 h, then stained cells with hematoxylin/eosin. For PI/Hoechst staining, cells were stained with PI and Hoechst for 20 min, then photographed with a fluorescence microscope and at least 300 cells were counted. The ratio of PI positive cells (%) = (PI positive cells) / (Hoechst positive cells) × 100%. For cell viability assay, CCK8 was added to the well and incubated for 1 − 2 h and then OD450 was measured using a multi-mode microplate reader (Cytation5, BioTek).

HCT-116 cells = assay: TSZ-induced necroptosis in HCT-116 cells (PI/Hoechst staining); format: cell-based, human
Experimental: as §3

[10] = HT-29 cells, UDPG+TSZ, pre-treatment
[11] = HCT-116 cells, UDPG+TSZ, pre-treatment

In the case of `CN1C(=O)NC(Cc2c[nH]c3c(Cl)cccc23)C1=O` (centres unmarked) [Nec-1s], the “Ripk1 transcript (mRNA)” value (Ripk1 mRNA [1]; [10]) is reported as “showed no effect”, the “Expression of Ripk1 in HT-29 cell, 2^△△CT” value (Ripk1 mRNA [1]; added to TSZ+UDPG) is reported as 3.657 and 4.786 and 3.641 and 3.399 and 4.214 and 3.302 and the “Expression of Ripk1 in IEC, 2^△△CT” value (Ripk1 mRNA [2]) is reported as 1.11 and 1.102 and 0.9517 and 0.9698 and 1.16. The P-MLKL/MLKL (MLKL phosphorylation [3]) was 2.175 and 2.507 and 2.289 and 2.573 and 2.48, the “Phosphorylation level of PKA/CREB pathway” value ([4]; UDPG+TSZ) was “did not affect the phosphorylation level of PKA/CREB pathway” and the P-CREB/CREB ([4]; added to UDPG+TSZ, Figure 5k) was 0.2673 and 0.2178 and 0.2551 and 0.2611 and 0.3759. For the same molecule, the P-MLKL/MLKL (MLKL phosphorylation [5]) was 2.79 and 2.6518 and 3.608 and 1.739 and 2.51, the “UDPG-increased TSZ necroptosis in organoids” value (intestinal organoids) was “remarkably attenuated this damage” and the “CREB binding Ripk1 promoter” value ([6]; Figure 5p, added to TSZ+UDPG) was 42.22% and 33.74% and 27.53%. For the same molecule, the “Decrease of binding between CREB and Ripk1 promoter (ChIP)” value [6, 11] was “did not affect this process”, the “Ripk1 transcript (mRNA)” value (Ripk1 mRNA [7]; [11]) was “showed no effect” and the “Expression of Ripk1 in HCT-116 cell, 2^△△CT” value (Ripk1 mRNA [7]; added to TSZ+UDPG) was 2.77 and 2.8504 and 2.771 and 2.541 and 2.7034. For the same molecule, the P-PKA/PKA ([8]; Figure 5n, second block, added to UDPG+TSZ) was 0.2244 and 0.2706 and 0.2071 and 0.4048 and 0.2633, the “Phosphorylation level of PKA/CREB pathway” value ([8]; UDPG+TSZ) was “did not affect the phosphorylation level of PKA/CREB pathway” and the “CREB binding Ripk1 promoter” value ([9]; Figure 5m, added to TSZ+UDPG) was 4.90% and 6.57% and 1.83%. The “Decrease of binding between CREB and Ripk1 promoter (ChIP)” value [9, 10] was “did not affect this process”, the “UDP-glucose derived damage on TSZ-stimulated necroptosis” value (HT-29 cells; HT-29 cells, UDPG+TSZ) was “remarkably attenuated the UDP-glucose derived damage on TSZ-stimulated necroptosis” and the Cell viability (HT-29 cells; P2Y14R-OE cells + TSZ, replicates) was 99.7919 and 100.274 and 99.3783 and 100.966 and 100.911 and 101.005. For the same molecule, the “PI positive (%)” value (HT-29 cells; P2Y14R-OE cells + TSZ, replicates, supplement Figure 2c) was 6.21% and 5.544% and 2.585%, the TSZ-stimulated necroptosis (HT-29 cells; P2Y14R-overexpression HT-29 cells, 1h pre-treatment, TSZ 8 h) was “alleviated TSZ stimulated IECs necroptosis” and the “UDP-glucose derived damage on TSZ-stimulated necroptosis” value (HCT-116 cells; HCT-116 cells, UDPG+TSZ) was “remarkably attenuated the UDP-glucose derived damage on TSZ-stimulated necroptosis”. The “PI positive (%)” value (HCT-116 cells; P2Y14R-OE cells + TSZ, replicates, supplement Figure 2f) was 1.2% and 1.6% and 3.0% and the TSZ-stimulated necroptosis (HCT-116 cells; P2Y14R-overexpression HCT-116 cells, pre-treated) was “alleviated this phenomenon”.
